Earlier results on one compound are cited in patent US6492174B1, “Methods of initiating embryogenic cultures in plants” (Institute of Paper Science & Technology, priority 2000, dated 2002).

The data set deals with Pinus embryogenic cultures. The note with it: solid initiation media containing 30-90 mg/l ABA; cited from earlier work.

For the compound `CC1=CC(=O)CC(C)(C)C1(O)/C=C/C(C)=C\C(=O)O` (stereo not shown) [ABA, 5-(1-hydroxy-2,6,6,-trimethyl-4-oxo-2-cyclohexen-1-yl)-3-methyl-2,4-penta dienoic acid], the initiation frequencies is on record as 30-38%.
